Laboratory results published in patent EP1189923B1, “AROMATIC AND HETEROCYCLIC DERIVATIVES OF PHYTOSTEROLS AND/OR PHYTOSTANOLS FOR USE IN TREATING OR PREVENTING CARDIOVASCULAR DISEASE” (Forbes Medi-Tech Inc., priority 1999, dated 2000).

Assays:
apo E-KO mice = assay: Plasma triglyceride levels in apo E-KO mice fed experimental diets; assay type: in vivo; conditions: compounds in diet
Procedure: Thus, as outlined below, 40 male apo E-KO mice were divided into 5 groups of 8 with similar mean plasma cholesterol level and body weight. The animals were fed with the experimental diets for 14 weeks.
The animals were bled from the tail at base line and during the experiment for measurement of plasma lipid levels. At the end of the study, the mice were sacrificed using CO2 gas and taking blood from the heart.
Plasma triglyceride levels were measured in clinical lab At St. Paul's Hospital.

[1] = in vivo; cited from earlier work

O=C(O)c1cccnc1 [nicotinic acid]
effect on plasma triglyceride levels (apo E-KO mice): reduced triglyceride levels
elevation of the "good" HDL cholesterol [1]: 20-30%
